Data set [1] can be described thus: Saturation solubility, shake-flask method, quantification by HPLC/UV. The format is physicochemical. To be noted: 0.01 N HCl, 37 °C, pH 2, simulated gastric fluid, thermodynamic from solid, 0.01 N HCl pH 2; 24 h at 37°C.
A short description of data set [2]: Two-stage biorelevant in vitro dissolution test (acid stage pH 2.0, buffer stage pH 7.0, non-sink conditions). The format is physicochemical. An excerpt:
To characterize the in vitro performance of the gastro-resistant granules that contain the RhuDex® choline salt as an amorphous solid dispersion a predictive biorelevant dissolution method has been developed. The design of the method comprises a two-stage in vitro dissolution test that simulates the conditions of the gastrointestinal passage. In a first step the formulation is exposed to simulated gastric fluid where the enteric protection provided by the outer hypromellose succinate acetate layer should ensure that there is no premature drug substance release from the granules. The subsequent step simulates the condition of the upper intestine where the enteric polymer should immediately dissolve and where the drug substance release should start. The gastro-resistance and the release profile are measured by the amount of RhuDex® choline salt dissolved in the acid and buffer medium. The established test system relies on the use of standard media and buffer systems without the addition of any surfactants or bile acids. […] The extent of the spring and parachute effect should be measurable in the simulated intestinal fluid. The parameters of the biorelevant dissolution method are presented below. Summarizing the established conditions for testing the biorelevant dissolution of RhuDex® choline salt gastro-resistant granules, the studies are conducted under non-sink conditions as follows: […]

Data set [3] in a line: Apparent permeation across Caco-2 cell monolayers. The format is in vitro ADME, human. To be noted: human, Caco-2; apical buffer pH 7.0, basolateral buffer pH 7.4; test concentration 127 µg/ml. The protocol: (§1) The biorelevant dissolution profile of the embodiment positively affects the second relevant parameter predicting the compound's oral bioavailability, i.e. its permeability. As shown in apparent permeation studies across monolayers formed by human colon carcinoma cell line Caco-2 the spring and parachute effect observed for formulated RhuDex® choline salt also leads to a higher permeation rate when compared with its crystalline and unformulated counterpart. The permeation assays were performed using an apical buffer at a pH value of 7.0 and a basolateral buffer at a pH value of 7.4. The test concentration was set to 127 µg/ml and should represent a potential clinical dose of 31.75 mg RhuDex® choline salt administrered in a volume of 250 ml (i.e. 31.75 mg/250 ml = 0.127 mg/ml). With an apparent permeation value (Papp) of less than 1 (i.e. 0.12 x 10^-6 cm/s) the permeability of crystalline RhuDex® choline salt across Caco-2 cell monolayers must be classified as poor and a low bioavailability of unformulated drug substance can be estimated. However, the Papp value increased to 2.7 x 10^-6 cm/s when using an amorphous solid dispersion of RhuDex® choline salt in the same experiment indicating a remarkable shift from low to moderate permeability. This effect can be cleary attributed to the embodiment.
On the technique in general: Passage across Caco-2 layers is used to estimate intestinal permeability.

Data set [4] has as its system monolayers formed by human colon carcinoma cell line Caco-2. In words: Apparent permeation across Caco-2 cell monolayers. The format is in vitro ADME. The conditions noted are these: Caco-2 cell monolayers; 127 µg/ml. The method, then:
as §1

Data set [5] is described as follows: Saturation solubility, shake-flask method, quantification by HPLC/UV. To be noted: for solubility at 24 h: 37 °C, thermodynamic from solid. The data set is classed as physicochemical. The method, then:
The saturation solubility of RhuDex® choline salt determined at 37°C after 24 hours by HPLC/UV using the shake-flask method is at around or below 0.001 mg/mL when using standard media or buffers such as 0.1 N hydrochloric acid pH 1.2 and 50 mM phosphate buffer pH 7.0 or biorelevant media such as Fasted-State Simulated Intestinal Fluid (i.e. FaSSIF) pH 6.5 and Fed-State Simulated Intestinal Fluid (FeSSIF) pH 5.0.
When increasing the pH value above the pKa and beyond the physiological conditions (i.e. pH > 8), the opposite effect occurs as the molecule is transferred into its negatively charged and soluble ion. […] However, these enabling technologies are neither standard nor easily applicable as they directly affect the physical properties of the drug substance and thereby its thermodynamic stability. Therefore, there is an extremely high risk of failure associated with these technologies concluding that the drug substance cannot be further developed into a suitable, stable, bioavailable and commercially viable formulation. Table 2: Saturation solubility of RhuDex® choline salt in biorelevant media (shake-flask method, 24 h at 37°C, quantification by HPLC/UV)

A short description of data set [6]: Hygroscopicity of the drug substance. The data set is classed as physicochemical.
The nature of data set [7]: pKa value of the drug substance. The data set is classed as physicochemical. The conditions noted are these: free acid.

Where a name gives a salt, the structure may show the parent alone. Read-outs that look alike come from different tables or passages of the source. Some results are limits rather than exact numbers.

Consider two compounds from patent publication EP4119128A1, “PHARMACEUTICAL COMPOSITION FOR THE ORAL ADMINISTRATION OF POORLY SOLUBLE DRUGS COMPRISING AN AMORPHOUS SOLID DISPERSION” (Dr. Falk Pharma GmbH, priority 2021, dated 2023).

Regarding `O=C(NCC(F)F)c1ccc(-n2[nH]c3c(nnc4c(F)cccc43)c2=O)cc1` [RhuDex® choline salt, N-(2,2-difluoroethyl)-4-(6-fluoro-3-oxo-1,3-dihydropyrazolo[4,3-c]cinnolin-2-yl)-benzamide], the solubility at 24 h in data set [1] was 0.1 µg/mL; in data set [5] (50 mM borate buffer, pH 9.5, aqueous buffer, 50 mM borate buffer, pH 9.5, read-out: solubility), 1300 µg/mL; in data set [5] (50 mM phosphate buffer, pH 7, aqueous buffer, Phosphate buffer 50 mM, pH 7.0, 24 h at 37°C, read-out: Saturation solubility) it was 0.7 µg/mL; in data set [5] (50 mM phosphate buffer, pH 7, aqueous buffer, pH 7.0, read-out: solubility of the drug substance) it was roughly 1 µg/mL; in data set [5] (aqueous buffer, 37°C, 24 hours, shake-flask, 0.1 N hydrochloric acid pH 1.2, 50 mM phosphate buffer pH 7.0, FaSSIF pH 6.5, FeSSIF pH 5.0, read-out: saturation solubility), no more than 1 µg/mL; in data set [5] (FaSSIF, pH 6.5, fassif, FaSSIF, pH 6.5, 24 h at 37°C, read-out: Saturation solubility), 1.1 µg/mL. Besides, the solubility at 24 h was 0.1 µg/mL in data set [5] (FeSSIF, pH 5, fessif, FeSSIF, pH 5.0, 24 h at 37°C, read-out: Saturation solubility) and roughly 10000 µg/mL in data set [5] (water, pH 9.9, water, in water, final pH value of the solution 9.9, read-out: solubility). In addition, in data set [2] (0.001 mg/ml x 460 ml, buffer pH 7.0), the “amount in solution when presented in crystalline form” value was 0.46 mg. The “dose in solution when presented in crystalline form” value in data set [2] (calculated from solubility 0.001 mg/ml in 460 ml buffer pH 7.0, dose 31.75 mg) is 1.4%. The Papp at 127 µg/ml in data set [3] is 0.12 ×10⁻⁶ cm/s. Besides, the permeability classification result in data set [4] was “poor”. In addition, in data set [5], the “biopharmaceutics classification system (BCS) class” value is reported as “either Class II (low solubility/high permeability) or Class IV (low solubility/low permeability)”. Further, the “volume required to completely dissolve one dose” value in data set [5] (dose 31.75 mg, minimum solubility 0.001 mg/mL, physiologically relevant conditions) is listed as “more than 30 L”. For the same compound, in data set [6], the hygroscopicity result is on record as “only slightly hygroscopic”.

In turn, `O=C(NCC(F)F)c1ccc(-n2[nH]c3c(nnc4c(F)cccc43)c2=O)cc1` [RhuDex® free acid, 4-(6-fluoro-3-oxo-1,3-dihydro-pyrazolo[4,3-c]cinnolin-2-yl)-N-(2,2-difluoro-ethyl)-benzamide] registered a pKa in data set [7] of 5.8.

The term Papp denotes the rate of passage across a membrane or cell layer, normalised by area and donor concentration. For orientation: pKa means the pH at which an ionisable group is half protonated. A low value points to a group that gives up its proton readily.
